This passage reports AC50, IC50 and EC50 results from ChEMBL document CHEMBL1201862, “PubChem BioAssay data set” (2004).

Activity calls are given as the source filed them.

For one test, the target named is Cytochrome P450 2C19 (Homo sapiens, UniProt P33261). Briefly: Cytochrome panel assay with activity outcomes. Panel member name: p450-cyp2c19 Compounds with AC50 equal or less than 10 uM are considered active. In kind it is functional. The note with it: read-out: AC50.
The target of the next test is Cytochrome P450 2D6 (Homo sapiens, UniProt P10635).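 Further: CYP2D6 member of a cytochrome P450 panel assay.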
Cytochrome P450 2D6, sequence (P10635 whole entry): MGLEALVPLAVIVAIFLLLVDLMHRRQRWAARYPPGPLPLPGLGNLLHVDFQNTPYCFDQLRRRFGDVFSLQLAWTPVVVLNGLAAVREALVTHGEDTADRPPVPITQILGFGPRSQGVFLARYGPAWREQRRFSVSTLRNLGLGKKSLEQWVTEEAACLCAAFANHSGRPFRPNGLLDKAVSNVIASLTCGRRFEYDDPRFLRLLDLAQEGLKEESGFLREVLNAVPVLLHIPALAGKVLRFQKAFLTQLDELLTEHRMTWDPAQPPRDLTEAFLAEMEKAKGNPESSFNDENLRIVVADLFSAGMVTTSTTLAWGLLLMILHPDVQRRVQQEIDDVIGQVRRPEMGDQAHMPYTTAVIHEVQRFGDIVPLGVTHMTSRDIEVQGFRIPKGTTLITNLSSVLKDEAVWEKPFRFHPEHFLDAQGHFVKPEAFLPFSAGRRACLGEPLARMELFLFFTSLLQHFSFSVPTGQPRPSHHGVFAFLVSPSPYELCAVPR
The target in a further test is Large T antigen (Simian virus 40, UniProt P03070). The class given is functional, Betapolyomavirus macacae.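 Further: Confirmatory-stage PubChem screen for compounds that inhibit SV40 T antigen.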
Large T antigen, sequence (P03070 whole entry): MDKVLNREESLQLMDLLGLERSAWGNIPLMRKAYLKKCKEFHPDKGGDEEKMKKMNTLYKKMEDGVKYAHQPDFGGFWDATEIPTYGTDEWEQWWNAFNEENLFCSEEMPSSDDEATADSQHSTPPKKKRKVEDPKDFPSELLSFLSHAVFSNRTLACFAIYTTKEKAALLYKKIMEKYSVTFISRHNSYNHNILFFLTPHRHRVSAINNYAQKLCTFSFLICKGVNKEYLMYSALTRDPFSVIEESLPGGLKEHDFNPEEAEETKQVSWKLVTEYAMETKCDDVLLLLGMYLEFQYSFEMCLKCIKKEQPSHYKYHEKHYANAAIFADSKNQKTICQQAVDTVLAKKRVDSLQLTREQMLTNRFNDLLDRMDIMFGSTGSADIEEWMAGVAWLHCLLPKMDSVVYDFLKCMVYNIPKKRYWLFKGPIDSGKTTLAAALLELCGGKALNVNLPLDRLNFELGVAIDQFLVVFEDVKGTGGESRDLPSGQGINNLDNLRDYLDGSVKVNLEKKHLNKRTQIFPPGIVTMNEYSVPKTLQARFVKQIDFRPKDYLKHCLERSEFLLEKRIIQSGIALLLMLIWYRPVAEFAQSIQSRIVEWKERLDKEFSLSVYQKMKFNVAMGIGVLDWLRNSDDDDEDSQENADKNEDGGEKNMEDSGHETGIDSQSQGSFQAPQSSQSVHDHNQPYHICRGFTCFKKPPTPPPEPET
The test system of the next test is INS1. Briefly: beta cell apoptosis inhibitors, cytokine rescue, dose response, luminescence, retest (AID 449756).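 Further: cell death triggered by IL-1 beta plus TNF-alpha plus IFN-gamma mixture; protective hits raise ATP signal compared with cytokine alone wells.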 In kind it is functional, cell-based. The note with it: Rattus norvegicus.
Test [1] has as its target T1, Zinc finger protein mex-5 (Caenorhabditis elegans, UniProt Q9XUB2).
T1 sequence (Q9XUB2 whole entry): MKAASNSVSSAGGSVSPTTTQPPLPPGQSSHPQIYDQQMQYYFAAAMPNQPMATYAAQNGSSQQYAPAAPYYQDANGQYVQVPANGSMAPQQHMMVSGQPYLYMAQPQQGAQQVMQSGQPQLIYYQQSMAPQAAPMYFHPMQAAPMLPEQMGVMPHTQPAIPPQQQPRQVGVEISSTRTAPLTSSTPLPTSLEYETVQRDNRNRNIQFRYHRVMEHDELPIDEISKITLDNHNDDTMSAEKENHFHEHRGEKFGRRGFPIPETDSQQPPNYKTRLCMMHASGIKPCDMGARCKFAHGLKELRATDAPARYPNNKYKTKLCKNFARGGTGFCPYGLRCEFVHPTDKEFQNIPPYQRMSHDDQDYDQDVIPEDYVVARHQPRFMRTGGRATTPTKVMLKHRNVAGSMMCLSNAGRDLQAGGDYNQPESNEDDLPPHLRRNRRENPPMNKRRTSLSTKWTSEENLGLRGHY
Briefly: MEX-5/TCR-2 RNA interaction inhibitors, dose response, biochemical, C. elegans, fluorescence polarization (AID 1960). Background: In fluorescence polarisation assays a small probe gives low polarisation when free and higher when bound to something large.

For test [2], the target named is T2, RNA-binding protein pos-1 (Caenorhabditis elegans, UniProt G5EF15).
T2 sequence (G5EF15 whole entry): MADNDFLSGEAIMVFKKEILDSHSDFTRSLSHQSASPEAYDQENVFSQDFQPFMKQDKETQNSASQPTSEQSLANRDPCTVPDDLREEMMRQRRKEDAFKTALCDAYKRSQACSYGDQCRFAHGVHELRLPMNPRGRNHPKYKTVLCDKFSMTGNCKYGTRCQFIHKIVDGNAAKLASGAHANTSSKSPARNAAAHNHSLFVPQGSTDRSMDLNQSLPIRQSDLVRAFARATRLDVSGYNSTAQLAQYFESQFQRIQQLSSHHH
Briefly: inhibitors of POS-1/mex-3 RNA binding, dose response, biochemical, fluorescence polarization (AID 1964).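 Further: purified POS-1 fused to maltose binding protein made in E. coli; potency of compounds blocking POS-1 binding to fluorescent RNA.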

Test [3] relates to BJ. Briefly: cytotoxicity toward BJ-TERT-LT-ST fibroblasts, dose response, cell-based, RAS-independent, luminescence (AID 1935).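 Further: BJ fibroblasts immortalized with TERT plus LT and ST oncogenes.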 The note with it: Homo sapiens. In kind it is functional.
Test [4] deals with BJ. As to the kind of experiment: cells. In kind it is functional, cell-based. To be noted: Homo sapiens.
The subject of test [5] is BJ. As to the kind of experiment: cytotoxicity toward BJ-TERT fibroblasts, dose response, cell-based, RAS-independent, luminescence (AID 1933). The class given is functional. The note with it: Homo sapiens.
The nature of test [6]: cytotoxicity toward DRD oncogenic fibroblasts, dose response, cell-based, non-viral oncogenic, luminescence (AID 1934). The class given is functional. The note with it: Homo sapiens.
In test [7] the target is Eukaryotic translation initiation factor 4E (Mus musculus, UniProt P63073). As to the kind of experiment: eIF4E–eIF4G protein interaction inhibitors, dose response, biochemical, TR-FRET (AID 855).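 Further: potency for disrupting eIF4E binding to eIF4GI seen as loss of FRET.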 In kind it is functional. Background: Time-resolved FRET reads energy transfer from a long-lived donor to a nearby acceptor.
Eukaryotic translation initiation factor 4E, sequence (P63073 whole entry): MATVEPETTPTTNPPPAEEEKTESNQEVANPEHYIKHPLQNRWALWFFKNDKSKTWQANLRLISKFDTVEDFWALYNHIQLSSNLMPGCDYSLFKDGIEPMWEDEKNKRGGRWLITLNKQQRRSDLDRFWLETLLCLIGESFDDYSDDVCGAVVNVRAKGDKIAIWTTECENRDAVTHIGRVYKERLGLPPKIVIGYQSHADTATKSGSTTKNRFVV
Test [8] deals with Luciferin 4-monooxygenase (Photinus pyralis, UniProt P08659). As to the kind of experiment: firefly luciferase enzyme inhibitors, dose response, biochemical, luminescence (AID 1891).
Luciferin 4-monooxygenase, sequence (P08659 whole entry): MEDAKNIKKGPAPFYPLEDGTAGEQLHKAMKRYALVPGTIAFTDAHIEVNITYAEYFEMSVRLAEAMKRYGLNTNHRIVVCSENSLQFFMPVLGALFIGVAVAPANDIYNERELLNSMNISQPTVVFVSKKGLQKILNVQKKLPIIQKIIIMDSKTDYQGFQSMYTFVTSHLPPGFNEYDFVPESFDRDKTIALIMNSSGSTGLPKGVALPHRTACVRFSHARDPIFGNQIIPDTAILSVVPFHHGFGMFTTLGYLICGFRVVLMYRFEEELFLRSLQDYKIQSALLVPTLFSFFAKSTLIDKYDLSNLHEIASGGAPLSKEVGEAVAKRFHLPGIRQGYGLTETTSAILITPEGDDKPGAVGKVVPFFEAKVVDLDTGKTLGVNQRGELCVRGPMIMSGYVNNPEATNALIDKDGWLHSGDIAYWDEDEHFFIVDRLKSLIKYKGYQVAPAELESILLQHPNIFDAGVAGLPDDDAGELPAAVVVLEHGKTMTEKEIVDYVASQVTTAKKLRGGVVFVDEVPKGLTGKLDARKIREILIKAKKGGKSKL
A short description of test [9]: Luminescence Cell-Based Dose Confirmation HTS to Identify Inhibitors of Platelet Dense Granule Release. [Related pubchem assays: 1663 (Primary HTS), 1678 (Summary of Project)]. The class given is functional.
Another test deals with Cytochrome P450 2C9 (Homo sapiens, UniProt P11712).
Cytochrome P450 2C9, sequence (P11712 whole entry): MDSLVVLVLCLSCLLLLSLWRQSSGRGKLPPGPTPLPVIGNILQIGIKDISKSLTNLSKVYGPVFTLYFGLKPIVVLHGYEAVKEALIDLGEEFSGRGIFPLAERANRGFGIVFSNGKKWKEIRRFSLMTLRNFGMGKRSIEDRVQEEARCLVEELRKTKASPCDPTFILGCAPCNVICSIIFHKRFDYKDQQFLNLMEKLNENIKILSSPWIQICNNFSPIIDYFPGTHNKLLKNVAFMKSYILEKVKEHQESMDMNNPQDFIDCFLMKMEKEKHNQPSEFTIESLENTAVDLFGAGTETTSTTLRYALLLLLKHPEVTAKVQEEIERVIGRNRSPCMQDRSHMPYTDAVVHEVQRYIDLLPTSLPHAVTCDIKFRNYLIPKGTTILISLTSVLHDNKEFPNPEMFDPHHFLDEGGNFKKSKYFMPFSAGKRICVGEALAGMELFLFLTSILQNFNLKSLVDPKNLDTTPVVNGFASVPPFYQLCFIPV
For test [10], the target named is T3, Rac GTPase-activating protein 1 (Homo sapiens, UniProt Q9H0H5).
T3 sequence (Q9H0H5 whole entry): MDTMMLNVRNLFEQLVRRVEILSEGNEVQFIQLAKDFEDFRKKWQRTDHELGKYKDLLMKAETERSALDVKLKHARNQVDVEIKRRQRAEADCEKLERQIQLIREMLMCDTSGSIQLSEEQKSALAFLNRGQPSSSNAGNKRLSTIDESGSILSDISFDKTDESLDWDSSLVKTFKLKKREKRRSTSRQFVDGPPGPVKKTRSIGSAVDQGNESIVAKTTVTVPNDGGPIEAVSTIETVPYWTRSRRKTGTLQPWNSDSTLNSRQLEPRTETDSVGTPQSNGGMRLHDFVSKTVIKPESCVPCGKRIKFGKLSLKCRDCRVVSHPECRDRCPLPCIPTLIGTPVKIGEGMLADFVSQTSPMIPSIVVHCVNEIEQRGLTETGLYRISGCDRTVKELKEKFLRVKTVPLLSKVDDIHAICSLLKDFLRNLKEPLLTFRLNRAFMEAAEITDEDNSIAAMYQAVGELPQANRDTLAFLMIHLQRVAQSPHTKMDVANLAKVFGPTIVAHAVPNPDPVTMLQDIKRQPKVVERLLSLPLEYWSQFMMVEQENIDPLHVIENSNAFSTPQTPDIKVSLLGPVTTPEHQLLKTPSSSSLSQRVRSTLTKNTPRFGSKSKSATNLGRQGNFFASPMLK
As to the kind of experiment: MgcRacGAP GTPase-activating activity inhibitors, confirmation, biochemical, ADP Hunter fluorescence, primary and confirmatory (AID 624330). The class given is functional.

Cytochrome P450 2C19, sequence (P33261 whole entry): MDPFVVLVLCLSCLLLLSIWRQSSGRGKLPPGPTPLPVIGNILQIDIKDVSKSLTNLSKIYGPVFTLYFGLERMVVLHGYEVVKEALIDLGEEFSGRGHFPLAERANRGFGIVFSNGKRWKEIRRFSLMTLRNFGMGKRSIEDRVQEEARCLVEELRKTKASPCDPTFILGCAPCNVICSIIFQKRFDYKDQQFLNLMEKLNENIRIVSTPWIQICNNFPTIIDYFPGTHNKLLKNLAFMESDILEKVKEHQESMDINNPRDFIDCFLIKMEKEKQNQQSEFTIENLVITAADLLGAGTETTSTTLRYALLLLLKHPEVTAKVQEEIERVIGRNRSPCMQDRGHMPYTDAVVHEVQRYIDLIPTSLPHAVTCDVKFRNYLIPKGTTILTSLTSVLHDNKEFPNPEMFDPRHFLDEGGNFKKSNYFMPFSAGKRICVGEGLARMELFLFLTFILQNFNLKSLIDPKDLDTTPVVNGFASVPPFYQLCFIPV

In general, AC50 refers to the midpoint of the concentration-response curve, whichever way the signal moves. As for `CN(C)c1ccc2nc3c(C(=O)O)cc(=O)c(O)c-3oc2c1`, the results for the concentration at half-maximal activity (AC50) at Cytochrome P450 2C19 and at Cytochrome P450 2D6 were 2.51 µM (inconclusive) and 3.16 µM (inconclusive), respectively.
What is called IC50 is the point on the concentration scale where inhibition reaches its midpoint. Consider `CN(C)c1ccc(NC(N)=S)cc1`, for which the IC50 at Large T antigen was 7.29 µM (active).
`Nc1c(N(CCC2=CCCCC2)C(=O)COc2ccc(F)cc2)c(=O)[nH]c(=O)n1Cc1ccccc1`: the concentration at half-maximal activity (AC50) in the test on INS1 is 4.49 µM (active).
For orientation: EC50 means the midpoint of the concentration-response curve. For the molecule `CCOc1ccc(N2C(=O)/C(=C/c3ccc(C)o3)C(=O)NC2=S)cc1`, the EC50 in test [1] and in [2] was > 300 µM (not active) throughout. In addition, at Large T antigen, the half-maximal inhibitory concentration (IC50) is 49.9 µM (active).
As to `Cc1noc(C)c1-c1nc(Nc2ccncc2)c2ccccc2n1`, the figures for the AC50 at Cytochrome P450 2C19 and on Cytochrome P450 2D6 were 31.6 µM (inconclusive) and 12.6 µM (inconclusive), respectively.
Regarding `Cc1cc(N2CCN(Cc3cn(C)nc3-c3ccccc3F)CC2)cc(C)n1`, the EC50 is 14.9 µM (active) with BJ [3], 101 µM (inconclusive) with BJ [4], 10.1 µM (active) in the test on BJ [5] and 16.3 µM (inconclusive) in test [6].
As to `COc1ccccc1CNc1nc(-c2cc(C)n(C)c2C)cs1`, the IC50 in test [7] is 50 µM (inactive).
Regarding `Cn1nccc1C(=O)Nc1ccc(Cl)cc1`, the concentration at half-maximal activity (AC50) on Cytochrome P450 2D6 was 0.282 µM (inconclusive).
Take `COc1cc(NC(=O)c2ccccc2)c(OC)cc1NC(=O)CSc1nc(O)cc(C)c1C#N`: the 50% effective concentration (EC50) was > 112 µM (not active) in test [8]; 1.21 µM (active) in test [9]; > 150 µM (not active) in the test with BJ [3]; 36 µM (inconclusive) with BJ [4]; 73.6 µM (inconclusive) in the test with BJ [5]; 34.7 µM (active) in test [6].
Take `CN1CCN(c2cc(N3CCCC3)c([N+](=O)[O-])cc2F)CC1`: the half-maximal activity concentration (AC50) on Cytochrome P450 2D6 was 14.1 µM (inconclusive); on Cytochrome P450 2C9, 0.1 µM (inconclusive).
Take `O=S1(=O)N=C(Nc2ccc(O)cc2)c2ccccc21`: the half-maximal inhibitory concentration (IC50) is 22.3 µM (active) in [10] and 5.09 µM (active) at Large T antigen.
On to `CN1CCN(NC(=O)c2cccc(F)c2)CC1`, for which the AC50 on Cytochrome P450 2C19 was 39.8 µM (inconclusive); at Cytochrome P450 2D6, 39.8 µM (inconclusive); on Cytochrome P450 2C9, 0.355 µM (inconclusive).
Regarding `CCN(CC)c1ccc(/C=N/N2CCOCC2)cc1`, the IC50 in test [10] is 40.8 µM (active); on Large T antigen it was 5.98 µM (active).
On the same counts, the results for `COc1cc(/C=N/NC(=O)C(=O)NCC2CCCO2)ccc1O` (centres undefined) are 32.3 µM (active) and 11.7 µM (active).
On to `COc1cccc(-c2ccc3ncnc(NCc4ccc(OC)cc4OC)c3c2)c1`, for which the values for the AC50 at Cytochrome P450 2D6 and on Cytochrome P450 2C9 were 20 µM (inconclusive) and 0.501 µM (inconclusive), respectively.
